For test [1], the target named is T1, DNA dC->dU-editing enzyme APOBEC-3A (Homo sapiens, UniProt P31941). The experiment in a line: SAR analysis of small molecule inhibitors of APOBEC3A DNA Deaminase via a fluorescence-based single-stranded DNA deaminase assay. Type of test: functional. To be noted: read-out: IC50_Mean.
The target of test [2] is T1, DNA dC->dU-editing enzyme APOBEC-3A. Put plainly: Dose Response confirmation of small molecule APOBEC3A DNA Deaminase Inhibitors via a fluorescence-based single-stranded DNA deaminase assay. [Related pubchem assays (depositor defined):AID493011, AID493024]. The format is functional.
The target of test [3] is T2, DNA dC->dU-editing enzyme APOBEC-3G (Homo sapiens, UniProt Q9HC16). Type of test: functional.
T2 sequence (Q9HC16 whole entry): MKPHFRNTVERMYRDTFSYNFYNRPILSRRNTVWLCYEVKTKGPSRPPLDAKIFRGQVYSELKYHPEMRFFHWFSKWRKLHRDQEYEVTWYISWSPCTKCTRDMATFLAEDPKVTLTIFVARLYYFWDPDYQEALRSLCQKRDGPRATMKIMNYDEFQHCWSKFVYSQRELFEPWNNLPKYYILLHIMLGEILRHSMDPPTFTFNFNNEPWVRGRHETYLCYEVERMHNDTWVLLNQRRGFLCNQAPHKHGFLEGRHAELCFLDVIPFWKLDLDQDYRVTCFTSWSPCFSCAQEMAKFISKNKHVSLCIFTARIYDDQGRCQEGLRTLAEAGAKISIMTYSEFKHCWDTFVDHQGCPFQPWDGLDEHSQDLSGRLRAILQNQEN
In test [4] the target is Eukaryotic translation initiation factor 4H (Homo sapiens, UniProt Q15056). The experiment in a line: eIF4H binding inhibition – biochemical, uHTS, fluorescence polarization, translation initiation inhibitor project, primary screen (AID 2012). For orientation: Polarisation of emitted light reports the rotation of a fluorescent probe.
The target of test [5] is T2, DNA dC->dU-editing enzyme APOBEC-3G. The experiment in a line: inhibition of APOBEC3G ssDNA deamination – biochemical, fluorescence, single-stranded DNA substrate, SAR follow-up (AID 602136). Type of test: functional. To be noted: read-out: IC50_Mean.
The target of test [6] is Polyadenylate-binding protein 1 (Homo sapiens, UniProt P11940). The experiment in a line: blockers of PABP interaction with poly(A) – biochemical, fluorescence polarization, […] (AID 2014).
Chain of Polyadenylate-binding protein 1 (P11940 whole entry): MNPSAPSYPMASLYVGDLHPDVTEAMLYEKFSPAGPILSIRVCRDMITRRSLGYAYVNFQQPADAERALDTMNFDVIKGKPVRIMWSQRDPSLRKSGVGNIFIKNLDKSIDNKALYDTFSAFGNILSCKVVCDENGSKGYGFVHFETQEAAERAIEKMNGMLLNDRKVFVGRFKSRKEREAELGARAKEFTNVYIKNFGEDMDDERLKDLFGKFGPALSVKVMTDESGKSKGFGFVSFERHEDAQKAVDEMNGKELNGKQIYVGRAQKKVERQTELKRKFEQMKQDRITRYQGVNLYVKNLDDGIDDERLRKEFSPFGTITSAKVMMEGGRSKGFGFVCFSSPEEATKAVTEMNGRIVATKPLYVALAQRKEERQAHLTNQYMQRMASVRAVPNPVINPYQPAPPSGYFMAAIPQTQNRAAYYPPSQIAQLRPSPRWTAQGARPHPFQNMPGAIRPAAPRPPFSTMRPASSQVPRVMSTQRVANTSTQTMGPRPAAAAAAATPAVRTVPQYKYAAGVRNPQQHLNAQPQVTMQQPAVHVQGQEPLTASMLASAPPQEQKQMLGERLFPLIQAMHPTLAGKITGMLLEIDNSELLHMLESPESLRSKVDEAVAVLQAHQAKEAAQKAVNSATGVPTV
Test [7] is described as follows: SAR analysis of small molecule activators of Apaf-1 using a LZ-Caspase-9/Caspase-3 Fluorescent Selectivity assay - Set 2. The format is functional. The settings on record: read-out: EC50_Mean.
Test [8] deals with Apoptotic protease-activating factor 1 (Homo sapiens, UniProt O14727). The experiment in a line: SAR analysis of small molecule Activators of Apaf-1 in a Fluorescent assay - set 2. The settings on record: read-out: EC50_Mean. The format is functional.
Chain of Apoptotic protease-activating factor 1 (O14727 whole entry): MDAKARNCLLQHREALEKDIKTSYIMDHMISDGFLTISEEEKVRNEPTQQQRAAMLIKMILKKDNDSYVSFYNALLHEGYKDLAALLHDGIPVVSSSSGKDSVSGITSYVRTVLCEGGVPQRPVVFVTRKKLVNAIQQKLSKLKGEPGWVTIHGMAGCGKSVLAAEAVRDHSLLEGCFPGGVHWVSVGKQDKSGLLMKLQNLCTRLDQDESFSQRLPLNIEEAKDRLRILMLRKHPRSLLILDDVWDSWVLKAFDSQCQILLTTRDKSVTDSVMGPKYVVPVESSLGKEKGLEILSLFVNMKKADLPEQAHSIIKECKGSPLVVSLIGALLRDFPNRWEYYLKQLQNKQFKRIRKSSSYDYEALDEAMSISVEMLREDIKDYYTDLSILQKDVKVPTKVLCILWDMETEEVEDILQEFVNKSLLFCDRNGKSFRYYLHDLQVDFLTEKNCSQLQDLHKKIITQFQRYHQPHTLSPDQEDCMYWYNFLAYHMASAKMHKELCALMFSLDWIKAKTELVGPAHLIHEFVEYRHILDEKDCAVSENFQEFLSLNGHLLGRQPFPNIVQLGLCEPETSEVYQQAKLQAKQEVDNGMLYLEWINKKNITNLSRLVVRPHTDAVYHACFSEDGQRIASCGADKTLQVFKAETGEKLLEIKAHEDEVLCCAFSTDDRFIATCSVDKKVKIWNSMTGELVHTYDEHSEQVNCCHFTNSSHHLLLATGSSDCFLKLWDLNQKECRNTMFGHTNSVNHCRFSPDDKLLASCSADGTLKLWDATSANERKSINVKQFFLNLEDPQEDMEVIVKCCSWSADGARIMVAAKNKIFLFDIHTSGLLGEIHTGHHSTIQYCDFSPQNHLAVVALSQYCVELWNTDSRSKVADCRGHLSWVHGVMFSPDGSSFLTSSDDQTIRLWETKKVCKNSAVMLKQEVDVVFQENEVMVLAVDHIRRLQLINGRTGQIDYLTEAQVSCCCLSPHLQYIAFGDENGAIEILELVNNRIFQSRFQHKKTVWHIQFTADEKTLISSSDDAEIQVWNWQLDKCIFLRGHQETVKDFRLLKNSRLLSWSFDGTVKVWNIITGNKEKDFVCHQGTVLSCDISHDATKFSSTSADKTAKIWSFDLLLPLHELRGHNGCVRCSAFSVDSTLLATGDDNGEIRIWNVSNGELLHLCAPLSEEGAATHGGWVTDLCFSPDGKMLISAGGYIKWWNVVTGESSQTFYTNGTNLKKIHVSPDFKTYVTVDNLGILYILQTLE
Test [9] deals with Sphingosine 1-phosphate receptor 2 (Homo sapiens, UniProt O95136). The experiment in a line: Late-stage fluorescence-based dose-response cell-based counterscreen assay to identify agonists of the Sphingosine 1-Phosphate Receptor 3 (S1P3): Sphingosine 1-Phosphate Receptor 2 (S1P2) agonist assay. Type of test: functional. A general note: Counterscreens check selectivity or assay interference.

Test [10] addresses Sphingosine 1-phosphate receptor 4 (Homo sapiens, UniProt O95977). The experiment in a line: Late-stage fluorescence-based dose-response cell-based counterscreen assay to identify agonists of the Sphingosine 1-Phosphate Receptor 3 (S1P3): Sphingosine 1-Phosphate Receptor 4 (S1P4) agonist assay. Type of test: functional.
Test [11] concerns the target Glycogen synthase kinase-3 beta (Homo sapiens, UniProt P49841). The format is functional.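 Also: value comes from a broad kinome profiling panel, with GSK3B as the panel member.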
Test [12] has as its target Dual specificity protein kinase CLK4 (Homo sapiens, UniProt Q9HAZ1). The format is functional.
Test [13] addresses Serine/threonine-protein kinase Nek4 (Homo sapiens, UniProt P51957). Type of test: functional.
The target in test [14] is Interleukin-1 receptor-associated kinase 4 (Homo sapiens, UniProt Q9NWZ3). The format is functional.
Chain of Interleukin-1 receptor-associated kinase 4 (Q9NWZ3 whole entry): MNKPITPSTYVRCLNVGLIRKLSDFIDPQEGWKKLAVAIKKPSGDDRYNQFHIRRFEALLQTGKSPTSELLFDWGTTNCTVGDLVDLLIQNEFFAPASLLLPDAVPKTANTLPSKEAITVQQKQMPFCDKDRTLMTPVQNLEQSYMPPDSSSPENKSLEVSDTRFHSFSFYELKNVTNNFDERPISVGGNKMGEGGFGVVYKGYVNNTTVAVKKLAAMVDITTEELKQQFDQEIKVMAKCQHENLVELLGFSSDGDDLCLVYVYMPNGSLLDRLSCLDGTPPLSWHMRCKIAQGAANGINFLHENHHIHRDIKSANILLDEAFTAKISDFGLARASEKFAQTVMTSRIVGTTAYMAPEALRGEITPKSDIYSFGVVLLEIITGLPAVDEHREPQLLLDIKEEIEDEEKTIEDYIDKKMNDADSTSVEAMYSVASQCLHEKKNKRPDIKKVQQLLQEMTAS
Test [15] concerns the target Casein kinase II subunit alpha (Homo sapiens, UniProt P68400). The format is functional.
In test [16] the target is Dual specificity protein kinase CLK2 (Homo sapiens, UniProt P49760). The format is functional.
Chain of Dual specificity protein kinase CLK2 (P49760 whole entry): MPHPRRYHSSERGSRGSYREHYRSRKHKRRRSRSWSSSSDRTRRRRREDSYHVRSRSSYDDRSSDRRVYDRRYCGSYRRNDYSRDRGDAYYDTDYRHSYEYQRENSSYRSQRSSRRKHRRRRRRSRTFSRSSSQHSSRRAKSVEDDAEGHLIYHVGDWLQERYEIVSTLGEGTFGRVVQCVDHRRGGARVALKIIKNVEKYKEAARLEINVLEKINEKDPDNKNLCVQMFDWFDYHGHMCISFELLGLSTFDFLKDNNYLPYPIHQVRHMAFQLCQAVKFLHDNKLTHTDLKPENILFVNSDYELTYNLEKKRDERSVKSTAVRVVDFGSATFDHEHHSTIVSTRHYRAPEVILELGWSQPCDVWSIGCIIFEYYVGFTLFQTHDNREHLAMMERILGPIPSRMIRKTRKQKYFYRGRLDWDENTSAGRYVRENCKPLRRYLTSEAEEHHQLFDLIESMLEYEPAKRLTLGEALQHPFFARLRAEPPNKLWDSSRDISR
The target in test [17] is Dual specificity tyrosine-phosphorylation-regulated kinase 1A (Homo sapiens, UniProt Q13627). The format is functional.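 Also: measured against DYRK1A as one member of a broad kinome profiling panel.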
For test [18], the target named is T3, High affinity choline transporter 1 (Homo sapiens, UniProt Q9GZV3).
T3 sequence (Q9GZV3 whole entry): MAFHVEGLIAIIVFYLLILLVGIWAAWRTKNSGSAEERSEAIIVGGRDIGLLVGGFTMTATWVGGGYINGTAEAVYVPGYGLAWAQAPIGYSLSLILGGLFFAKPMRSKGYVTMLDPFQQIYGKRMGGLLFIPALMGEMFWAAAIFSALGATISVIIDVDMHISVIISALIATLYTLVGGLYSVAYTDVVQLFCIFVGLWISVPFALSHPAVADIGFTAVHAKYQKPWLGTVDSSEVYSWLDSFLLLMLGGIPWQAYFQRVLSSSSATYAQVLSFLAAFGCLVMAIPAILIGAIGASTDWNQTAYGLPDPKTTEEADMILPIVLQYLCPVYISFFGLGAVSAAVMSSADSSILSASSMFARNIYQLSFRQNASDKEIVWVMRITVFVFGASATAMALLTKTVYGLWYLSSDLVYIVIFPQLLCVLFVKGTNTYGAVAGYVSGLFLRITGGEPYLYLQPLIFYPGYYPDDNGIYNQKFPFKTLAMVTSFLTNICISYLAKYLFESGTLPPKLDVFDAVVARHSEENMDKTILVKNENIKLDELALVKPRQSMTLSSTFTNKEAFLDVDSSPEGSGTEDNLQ
The experiment in a line: human choline transporter blockers, potency – cell-based, 10-point CRC, membrane potential dye, dose response (AID 588401).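 Also: membrane potential dye fluorescence of choline-evoked depolarization via CHT.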 The format is functional.

Test [19] addresses T3, High affinity choline transporter 1. The experiment in a line: human choline transporter blockers, potency – cell-based, 5-point CRC, membrane potential dye, dose response (AID 504840). Type of test: functional.
Test [20] deals with Rho-associated protein kinase 1 (Homo sapiens, UniProt Q13464). Type of test: functional.
Test [21] addresses Macrophage colony-stimulating factor 1 receptor (Homo sapiens, UniProt P07333). Type of test: functional.
Test [22] has as its target Ribosomal protein S6 kinase alpha-3 (Homo sapiens, UniProt P51812). The format is functional.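 Also: measured within a kinome-wide profiling panel.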
Test [23] concerns the target Serine/threonine-protein kinase D3 (Homo sapiens, UniProt O94806). The format is functional.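 Also: determined within a kinase panel screen, with PRKCN as the panel member.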
For test [24], the target named is Serine/threonine-protein kinase D2 (Homo sapiens, UniProt Q9BZL6). Type of test: functional.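 Also: measured against PRKD2 as one member of a kinome-wide kinase profiling panel.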

Calls of active or inactive are those of the source.

Chain of Dual specificity protein kinase CLK4 (Q9HAZ1 whole entry): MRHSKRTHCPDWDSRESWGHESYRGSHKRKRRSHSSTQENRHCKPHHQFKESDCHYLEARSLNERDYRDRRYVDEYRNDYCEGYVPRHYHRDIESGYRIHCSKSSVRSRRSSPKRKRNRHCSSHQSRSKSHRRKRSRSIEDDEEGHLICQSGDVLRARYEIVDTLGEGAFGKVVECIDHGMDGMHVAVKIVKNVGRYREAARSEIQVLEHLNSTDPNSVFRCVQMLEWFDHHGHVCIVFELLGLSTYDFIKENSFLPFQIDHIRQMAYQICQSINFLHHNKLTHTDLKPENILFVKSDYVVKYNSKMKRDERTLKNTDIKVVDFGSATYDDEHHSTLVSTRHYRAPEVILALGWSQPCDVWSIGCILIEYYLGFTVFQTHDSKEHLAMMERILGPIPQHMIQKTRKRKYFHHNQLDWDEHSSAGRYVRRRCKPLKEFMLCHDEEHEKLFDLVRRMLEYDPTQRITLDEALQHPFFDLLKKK
T1 sequence (P31941 whole entry): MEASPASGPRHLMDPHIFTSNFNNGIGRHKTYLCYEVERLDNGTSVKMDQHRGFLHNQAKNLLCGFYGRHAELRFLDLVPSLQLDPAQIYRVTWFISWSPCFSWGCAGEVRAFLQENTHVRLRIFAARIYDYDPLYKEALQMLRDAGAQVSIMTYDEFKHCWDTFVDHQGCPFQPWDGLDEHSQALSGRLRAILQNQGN
Chain of Serine/threonine-protein kinase D3 (O94806 whole entry): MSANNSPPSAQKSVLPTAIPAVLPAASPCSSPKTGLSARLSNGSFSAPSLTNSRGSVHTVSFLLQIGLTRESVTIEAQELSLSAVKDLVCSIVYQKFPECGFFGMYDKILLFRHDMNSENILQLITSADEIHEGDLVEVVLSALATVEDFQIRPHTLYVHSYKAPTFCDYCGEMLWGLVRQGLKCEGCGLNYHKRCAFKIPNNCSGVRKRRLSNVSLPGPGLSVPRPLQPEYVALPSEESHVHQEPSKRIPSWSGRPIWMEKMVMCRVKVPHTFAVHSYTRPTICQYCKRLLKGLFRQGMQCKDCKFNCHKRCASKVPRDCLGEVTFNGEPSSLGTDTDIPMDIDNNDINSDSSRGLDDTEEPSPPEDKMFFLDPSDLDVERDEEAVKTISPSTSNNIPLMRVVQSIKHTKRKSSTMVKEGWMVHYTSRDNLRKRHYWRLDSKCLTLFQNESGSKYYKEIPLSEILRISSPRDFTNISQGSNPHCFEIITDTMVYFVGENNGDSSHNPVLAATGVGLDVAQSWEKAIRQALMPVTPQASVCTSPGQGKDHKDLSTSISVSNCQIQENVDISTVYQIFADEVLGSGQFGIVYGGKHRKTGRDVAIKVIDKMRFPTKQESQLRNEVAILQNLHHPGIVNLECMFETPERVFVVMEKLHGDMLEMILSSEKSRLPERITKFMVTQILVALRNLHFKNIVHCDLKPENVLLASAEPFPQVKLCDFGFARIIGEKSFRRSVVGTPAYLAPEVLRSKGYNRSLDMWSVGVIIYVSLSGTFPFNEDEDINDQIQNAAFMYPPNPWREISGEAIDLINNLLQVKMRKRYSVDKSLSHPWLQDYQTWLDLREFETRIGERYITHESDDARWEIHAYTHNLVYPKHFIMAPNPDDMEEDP

`CC1(C)Oc2ccc3ccc(=O)oc3c2C(/C=N/O)=C1Cl`: the IC50 is 43 µM (inactive) in test [1]; 4.97 µM (active) in test [2]; 6.8 µM (active) in test [3]; > 100 µM (inactive) in test [4]; > 99 µM (inactive) in [5]; 10.3 µM (active) in test [6].

For the compound `Cc1nn(CC(C)C(=O)O)c(C)c1C` (stereo not given), the EC50 in [7] is > 100 µM (inactive); in test [8], 63.6 µM (active).

Take `O=C(c1coc(C2CC2)n1)N(C1CCCCC1)C1CCCCC1`: the EC50 in test [9] and in test [10] was > 50 µM (inactive) throughout.

`C(=Cc1cncc(OCCc2c[nH]c3ccccc23)c1)c1ccncc1`: the Ki was 5.01 µM (active) in [11]; 1 µM (active) in [12]; 6.31 µM (active) in test [13]; > 10 µM (inactive) in test [14]; 3.16 µM (active) in test [15].

In the case of `CCc1cccc2c1n(CC)c(=N)n2CC(=O)c1ccc(Cl)cc1`, the Ki in test [12] was 2.51 µM (active); in test [16], 1.58 µM (active); in test [17], 2.51 µM (active).

With `Nc1ncnc2c1ncn2C1OC(C(=O)NC2CC2)C(O)C1O` (stereo not given), the IC50 is 0.00447 µM (active) in test [18] and 0.0241 nM (inconclusive) in [19].

On to `CCNC(=O)c1[nH]nc(-c2cc(Cl)c(O)cc2O)c1-c1ccc(OC)cc1`, for which the Ki in test [20] is 3.98 µM (active); in [21], 1.26 µM (active); in test [22], 3.16 µM (active); in test [23] it was 1.58 µM (active); in test [24], 1.58 µM (active).

In general, Ki refers to the dissociation constant of the complex between target and ligand, obtained from inhibition or displacement.

For the origin of these results see ChEMBL document CHEMBL1201862, “PubChem BioAssay data set” (2004).
